Source: patent publication US10479795B2 (Incyte Corporation, priority 2016, dated 2019)
Structures can show the parent of a compound that is named as a salt. Where two headings read alike, the source gives them in different places.

What was measured:
[1] = test system: Phosphorylated Ribosomal Protein S6 (RPS6); test: THP-1 RPS6 ELISA Assay; assay type: cell-based, Human; conditions: THP-1 cells, read-out: PI3Kγ_THP1_RPS6_ELISA IC50
Summary of the method: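 IC50 values come from a curve of percent inhibition against log compound concentration, using phospho-RPS6 ELISA (450 nm) on THP-1 lysates. Cells were serum-starved overnight, exposed to compound for 2 h at 37 °C, then challenged 15 min with 10 nM MCP-1.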

[2] = target: PI3Kγ (p110γ) Recombinant Human Protein (Homo sapiens (Human), UniProt P48736); test: PI3K-γ Scintillation Proximity Assay; assay type: biochemical; conditions: read-out: PI3Kγ IC50
Sequence of PI3Kγ (p110γ) Recombinant Human Protein (P48736 whole entry): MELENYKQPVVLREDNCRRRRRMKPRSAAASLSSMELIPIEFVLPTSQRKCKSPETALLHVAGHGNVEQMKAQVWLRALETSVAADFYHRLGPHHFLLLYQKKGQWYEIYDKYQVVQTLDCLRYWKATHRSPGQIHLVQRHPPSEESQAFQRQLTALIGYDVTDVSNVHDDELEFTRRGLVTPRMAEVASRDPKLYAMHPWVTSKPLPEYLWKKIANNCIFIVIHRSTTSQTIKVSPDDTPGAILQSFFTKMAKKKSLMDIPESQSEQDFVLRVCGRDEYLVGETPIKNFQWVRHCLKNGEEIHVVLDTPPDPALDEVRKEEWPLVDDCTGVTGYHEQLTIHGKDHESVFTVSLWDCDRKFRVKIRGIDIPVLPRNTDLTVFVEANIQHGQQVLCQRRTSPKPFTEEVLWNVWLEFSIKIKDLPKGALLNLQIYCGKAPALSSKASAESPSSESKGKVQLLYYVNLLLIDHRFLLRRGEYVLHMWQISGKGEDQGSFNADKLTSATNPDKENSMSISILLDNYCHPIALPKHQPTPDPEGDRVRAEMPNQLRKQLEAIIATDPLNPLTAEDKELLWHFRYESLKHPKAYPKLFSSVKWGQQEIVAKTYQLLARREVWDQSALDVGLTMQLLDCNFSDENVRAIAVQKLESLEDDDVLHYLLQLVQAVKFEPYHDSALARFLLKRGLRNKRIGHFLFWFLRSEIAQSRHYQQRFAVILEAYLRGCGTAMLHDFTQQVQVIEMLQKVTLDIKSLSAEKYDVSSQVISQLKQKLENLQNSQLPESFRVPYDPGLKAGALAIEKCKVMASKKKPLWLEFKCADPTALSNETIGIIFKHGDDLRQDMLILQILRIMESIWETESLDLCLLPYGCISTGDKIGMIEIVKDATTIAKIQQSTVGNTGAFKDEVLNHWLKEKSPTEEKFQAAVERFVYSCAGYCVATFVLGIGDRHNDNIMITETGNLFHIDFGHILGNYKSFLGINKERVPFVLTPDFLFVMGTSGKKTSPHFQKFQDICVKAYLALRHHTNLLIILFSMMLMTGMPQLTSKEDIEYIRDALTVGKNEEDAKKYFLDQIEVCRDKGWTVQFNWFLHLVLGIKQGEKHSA
Summary of the method: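 Radiometric SPA readout: […] bound to WGA beads after overnight shaking, IC50 derived from % activity of DMSO control. Reaction used human p110γ, 2 μM ATP, 20 μM PIP2, pH 6.7 MOPS buffer with MgCl2, DTT, CHAPS, 2% DMSO, room temperature.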

[3] = target: PI3Kδ (p110δ/p85α) Recombinant Human Protein (Homo sapiens (Human), UniProt O00329); test: PI3Kδ Scintillation Proximity Assay; assay type: biochemical
Sequence of PI3Kδ (p110δ/p85α) Recombinant Human Protein (O00329 whole entry): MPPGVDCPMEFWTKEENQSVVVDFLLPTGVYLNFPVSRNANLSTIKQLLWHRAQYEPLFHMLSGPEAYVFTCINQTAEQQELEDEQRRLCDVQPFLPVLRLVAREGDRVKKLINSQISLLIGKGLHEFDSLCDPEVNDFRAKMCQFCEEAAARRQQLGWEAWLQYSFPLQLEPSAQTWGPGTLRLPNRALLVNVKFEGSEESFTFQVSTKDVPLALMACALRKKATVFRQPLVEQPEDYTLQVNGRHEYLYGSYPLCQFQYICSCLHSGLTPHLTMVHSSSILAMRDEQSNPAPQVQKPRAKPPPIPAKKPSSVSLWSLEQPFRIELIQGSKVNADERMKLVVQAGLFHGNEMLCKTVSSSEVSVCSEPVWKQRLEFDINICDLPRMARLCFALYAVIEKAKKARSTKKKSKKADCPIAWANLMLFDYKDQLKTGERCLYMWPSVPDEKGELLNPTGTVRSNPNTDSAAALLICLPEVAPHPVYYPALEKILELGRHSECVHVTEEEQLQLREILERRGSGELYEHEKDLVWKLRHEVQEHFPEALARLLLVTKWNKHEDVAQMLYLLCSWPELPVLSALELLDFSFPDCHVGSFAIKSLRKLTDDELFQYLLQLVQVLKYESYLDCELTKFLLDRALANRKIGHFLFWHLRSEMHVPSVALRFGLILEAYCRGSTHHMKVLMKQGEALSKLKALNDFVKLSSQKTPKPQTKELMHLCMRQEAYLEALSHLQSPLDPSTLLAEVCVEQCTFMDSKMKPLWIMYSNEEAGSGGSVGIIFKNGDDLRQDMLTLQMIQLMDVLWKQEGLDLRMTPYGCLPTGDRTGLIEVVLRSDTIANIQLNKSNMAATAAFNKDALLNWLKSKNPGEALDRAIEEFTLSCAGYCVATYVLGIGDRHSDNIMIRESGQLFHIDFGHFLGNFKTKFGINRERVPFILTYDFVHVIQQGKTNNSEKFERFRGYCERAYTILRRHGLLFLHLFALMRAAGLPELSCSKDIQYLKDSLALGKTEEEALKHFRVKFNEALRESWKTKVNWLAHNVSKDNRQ
Sequence of PI3Kδ (p110δ/p85α) Recombinant Human Protein (P27986 whole entry partner): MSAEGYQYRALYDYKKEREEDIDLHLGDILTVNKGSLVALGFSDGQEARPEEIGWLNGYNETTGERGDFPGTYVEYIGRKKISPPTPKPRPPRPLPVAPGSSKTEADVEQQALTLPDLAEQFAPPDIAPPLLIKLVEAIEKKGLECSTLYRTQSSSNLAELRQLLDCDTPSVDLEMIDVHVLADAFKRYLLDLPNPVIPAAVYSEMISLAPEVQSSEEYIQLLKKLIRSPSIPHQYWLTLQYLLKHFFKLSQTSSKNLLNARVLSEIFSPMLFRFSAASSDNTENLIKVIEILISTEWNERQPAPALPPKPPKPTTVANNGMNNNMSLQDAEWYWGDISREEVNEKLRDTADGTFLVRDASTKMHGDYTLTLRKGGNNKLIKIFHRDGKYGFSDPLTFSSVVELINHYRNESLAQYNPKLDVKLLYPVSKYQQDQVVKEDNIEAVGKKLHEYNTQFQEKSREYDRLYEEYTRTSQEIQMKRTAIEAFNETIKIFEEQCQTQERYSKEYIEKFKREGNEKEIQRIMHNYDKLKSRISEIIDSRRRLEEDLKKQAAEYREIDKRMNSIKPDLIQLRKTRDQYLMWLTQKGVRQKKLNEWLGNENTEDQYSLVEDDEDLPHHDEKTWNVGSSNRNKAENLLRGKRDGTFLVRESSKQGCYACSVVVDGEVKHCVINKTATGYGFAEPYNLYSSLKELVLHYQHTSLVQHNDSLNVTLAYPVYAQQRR
Summary of the method: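 Assay conditions: 2 μM ATP (radiolabelled), 20 μM PIP2, 3.4 nM PI3Kδ, 20 mM MOPS pH 6.7 with 10 mM MgCl2, 5 mM DTT, 0.03% CHAPS, 2 h at room temperature. Signal from bead-captured 33P product; IC50 versus solvent control.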

Structure (SMILES) | IC50 [1] [µM] | IC50 [2] [µM] | IC50 [3] [µM] | IC50 ([1]; Homo sapiens) [µM]
Cc1ccc(S(=O)(=O)N2CC3(CC(O)C3)C2)cc1-c1cnc2c(N)ncnn12 [Example 145, 2-((3-(4-aminoimidazo[2,1-f][1,2,4]triazin-7-yl)-4-methylphenyl)sulfonyl)-2-azaspiro[3.3]heptan-6-ol, TFA] | 0.1 to 0.5 | < 0.1 | 0.1 to 0.5 | –
Cc1ccc(S(=O)(=O)CCC(C)(C)O)cc1-c1cnc2c(N)nc(C(F)(F)F)cn12 [Example 495, 4-((3-(8-Amino-6-(trifluoromethyl)imidazo[1,2-a]pyrazin-3-yl)-4-methylphenyl)sulfonyl)-2-methylbutan-2-ol] | > 1 | < 0.1 | 0.5 to 2 | –
Cc1ccc(S(=O)(=O)NC23CC(Cn4cncn4)(C2)C3)cc1-c1cnc2c(N)ncnn12 [Example 113, N-(3-((1H-1,2,4-triazol-1-yl)methyl)bicyclo[1.1.]pentan-1-yl)-3-(4-aminoimidazo[1,2-f][1,2,4]triazin-7-yl)-4-methylbenzenesulfonamide trifluoroacetate salt] | 0.1 to 0.5 | < 0.1 | 0.5 to 2 | –
Cc1ccc(S(=O)(=O)N[C@H]2CC[C@H](O)CC2)cc1-c1cnc2c(N)nc(-c3ccc(F)cc3)cn12 [Example 20, 3-[8-Amino-6-(4-fluorophenyl)imidazo[1,2-a]pyrazin-3-yl]-N-(trans-4-hydroxycyclohexyl)-4-methylbenzenesulfonamide] | – | < 0.1 | < 0.1 | < 0.1
Cc1ccc(S(=O)(=O)N2CC[C@H](O)C2)cc1-c1cnc2c(N)nc(-c3ccc(CO)cc3F)cn12 [Example 506, (S)-1-((3-(8-Amino-6-(2-fluoro-4-(hydroxymethyl)phenyl)imidazo[1,2-a]pyrazin-3-yl)-4-methylphenyl)sulfonyl)pyrrolidin-3-ol] | – | < 0.1 | < 0.1 | < 0.1
Cc1ccc(S(=O)(=O)N[C@H]2CC[C@H](N)CC2)cc1-c1cnc2c(N)nccn12 [Example 58, N-(trans-4-Aminocyclohexyl)-3-(8-aminoimidazo[1,2-a]pyrazin-3-yl)-4-methylbenzenesulfonamide] | – | 0.1 to 0.5 | 0.5 to 2 | > 1
Cc1ccc(S(=O)(=O)N2CC[C@H](O)C2)cc1-c1cnc2c(N)ncnn12 [Example 197, (S)-1-((3-(4-Aminoimidazo[2,1-f][1,2,4]triazin-7-yl)-4-methylphenyl)sulfonyl)pyrrolidin-3-ol] | – | < 0.1 | 0.5 to 2 | 0.5 to 1
Cc1ccc(S(=O)(=O)N2CC(O)(C3CC3)C2)cc1-c1cnc2c(N)ncnn12 [Example 144, 1-((3-(4-aminoimidazo[2,1-f][1,2,4]triazin-7-yl)-4-methylphenyl)sulfonyl)-3-cyclopropylazetidin-3-ol, TFA] | 0.5 to 1 | < 0.1 | 0.1 to 0.5 | –
Cc1cc(C)c(S(=O)(=O)NC23CCC(CO)(C2)C3)cc1-c1cnc2c(N)nc(C(F)(F)F)cn12 [Example 400, 5-(8-Amino-6-(trifluoromethyl)imidazo[1,2-a]pyrazin-3-yl)-N-(4-(hydroxymethyl)bicyclo[2.1.1]hexan-1-yl)-2,4-dimethylbenzenesulfonamide trifluoroacetate salt] | – | < 0.1 | < 0.1 | < 0.1
Cc1nc(N)c2ncc(-c3cc(S(=O)(=O)NCC(C)(C)O)ccc3C)n2n1 [Example 273, 3-(4-amino-2-methylimidazo[1,2-f][1,2,4]triazin-7-yl)-N-(2-hydroxy-2-methylpropyl)-4-methylbenzenesulfonamide trifluoroacetate salt] | 0.1 to 0.5 | < 0.1 | 0.5 to 2 | –
Cc1ccc(S(=O)(=O)NC23CC(c4ncno4)(C2)C3)cc1-c1cnc2c(N)nc(C(F)(F)F)cn12 [Example 295, N-(3-(1,2,4-Oxadiazol-5-yl)bicyclo[1.1.1]pentan-1-yl)-3-(8-amino-6-(trifluoromethyl)imidazo[1,2-a]pyrazin-3-yl)-4-methylbenzenesulfonamide trifluoroacetate salt] | – | < 0.1 | 0.5 to 2 | > 1
Cc1ccc(S(=O)(=O)NC2CCC(C)(O)CC2)cc1-c1cnc2c(N)nccn12 (stereo not drawn) [Example 85, 3-(8-aminoimidazo[1,2-a]pyrazin-3-yl)-N-(trans-4-hydroxy-4-methylcyclohexyl)-4-methylbenzenesulfonamide] | 0.1 to 0.5 | < 0.1 | 0.5 to 2 | –
COc1ncccc1-c1cn2c(-c3cc(S(C)(=O)=O)ccc3C)cnc2c(N)n1 [Example 477, 6-(2-Methoxypyridin-3-yl)-3-(2-methyl-5-(methylsulfonyl)phenyl)imidazo[1,2-a]pyrazin-8-amine trifluoroacetate] | 0.1 to 0.5 | < 0.1 | 0.1 to 0.5 | –
Cc1ccc(S(=O)(=O)N[C@H]2CC[C@H](O)CC2)cc1-c1cnc2c(N)nc(-c3c(C)noc3C)cn12 [Example 77, 3-[8-amino-6-(3,5-dimethylisoxazol-4-yl)imidazo[1,2-a]pyrazin-3-yl]-N-(trans-4-hydroxycyclohexyl)-4-methylbenzenesulfonamide] | – | < 0.1 | 0.1 to 0.5 | 0.1 to 0.5
Cc1ccc(S(=O)(=O)N(C)C23CC(N)(C2)C3)cc1-c1cnc2c(N)ncnn12 [Example 118, N-(3-aminobicyclo[1.1.1]pentan-1-yl)-3-(4-aminoimidazo[1,2-f][1,2,4]triazin-7-yl)-N,4-dimethylbenzenesulfonamide trifluoroacetate salt] | > 1 | < 0.1 | 0.1 to 0.5 | –
Cc1ccc(S(=O)(=O)NC23CCC(CO)(CC2)OC3)cc1-c1cnc2c(N)ncnn12 [Example 433, 3-(4-Aminoimidazo[1,2-f][1,2,4]triazin-7-yl)-N-(1-(hydroxymethyl)-2-oxabicyclo[2.2.2]octan-4-yl)-4-methylbenzenesulfonamide trifluoroacetate salt] | – | < 0.1 | 0.1 to 0.5 | 0.1 to 0.5

The next lines start with the values.

IC50 [1] [µM] | IC50 [2] [µM] | IC50 [3] [µM] | IC50 ([1]; Homo sapiens) [µM] | Structure (SMILES)
– | < 0.1 | > 2 | > 1 | Cc1ccc(S(=O)(=O)N[C@H]2CC[C@H](NC(=O)OC(C)(C)C)CC2)cc1-c1cnc2c(N)ncnn12 [Example 72, tert-Butyl [trans-4-({[3-(4-aminoimidazo[2,1-f][1,2,4]triazin-7-yl)-4-methylphenyl]sulfonyl}amino)cyclohexyl]carbamate]
– | < 0.1 | 0.1 to 0.5 | 0.1 to 0.5 | Cc1ccc(S(=O)(=O)NC23CCC(C#N)(CC2)CC3)cc1-c1cnc2c(N)ncnn12 [Example 187, 3-(4-aminoimidazo[2,1-f][1,2,4]triazin-7-yl)-N-(4-cyanobicyclo[2.2.2]octan-1-yl)-4-methylbenzenesulfonamide]
< 0.1 | < 0.1 | 0.1 to 0.5 | – | Cc1ccc(S(=O)(=O)NC23CC(Cn4ccnc4)(C2)C3)cc1-c1cnc2c(N)nc(C(F)(F)F)nn12 [Example 324, N-(3-((1H-Imidazol-1-yl)methyl)bicyclo[1.1.1]pentan-1-yl)-3-(4-amino-2-(trifluoromethyl)imidazo[1,2-f][1,2,4]triazin-7-yl)-4-methylbenzenesulfonamide trifluoroacetate salt]
– | < 0.1 | 0.5 to 2 | 0.1 to 0.5 | Cc1ccc(S(=O)(=O)NC2CC(CO)(CO)C2)cc1-c1cnc2c(N)ncnn12 [Example 126, 3-(4-aminoimidazo[2,1-f][1,2,4]triazin-7-yl)-N-[3,3-bis(hydroxymethyl)cyclobutyl]-4-methylbenzenesulfonamide]
– | < 0.1 | 0.1 to 0.5 | > 1 | Cc1cc(F)c(S(=O)(=O)N2CCCC(CO)C2)cc1-c1cnc2c(N)nc(C(F)(F)F)cn12 (stereo not drawn) [Example 408, (1-((5-(8-Amino-6-(trifluoromethyl)imidazo[1,2-a]pyrazin-3-yl)-2-fluoro-4-methylphenyl)sulfonyl)piperidin-3-yl)methanol]
– | < 0.1 | > 2 | 0.1 to 0.5 | Cc1ccc(S(=O)(=O)N[C@H]2C[C@H](O)C2)cc1-c1cnc2c(N)ncnn12 [Example 71, 3-(4-Aminoimidazo[2,1-f][1,2,4]triazin-7-yl)-N-(trans-3-hydroxycyclobutyl)-4-methylbenzenesulfonamide]
0.1 to 0.5 | < 0.1 | 0.1 to 0.5 | – | Cc1ccc(S(=O)(=O)N[C@H]2CC[C@](O)(C(F)(F)F)CC2)cc1-c1cnc2c(N)ncnn12 [Example 124, 3-(4-aminoimidazo[2,1-f][1,2,4]triazin-7-yl)-N-[cis-4-hydroxy-4-(trifluoromethyl)cyclohexyl]-4-methylbenzenesulfonamide]
– | < 0.1 | 0.5 to 2 | > 1 | Cc1ccc(S(=O)(=O)N[C@H]2CC[C@H](C(C)(C)O)CC2)cc1-c1cnc2c(N)ncnn12 [Example 125, 3-(4-aminoimidazo[2,1-f][1,2,4]triazin-7-yl)-N-[trans-4-(1-hydroxy-1-methylethyl)cyclohexyl]-4-methylbenzenesulfonamide]
